Data from patent US12129223B2, “Lipids for use in lipid nanoparticle formulations” (Acuitas Therapeutics, Inc., priority 2021, dated 2024).

How the values were obtained:
[1] = Determination of pKa of formulated lipids (TNS fluorescence assay in lipid nanoparticles); type: physicochemical; details: lipid nanoparticles (compound/DSPC/cholesterol/PEG-lipid), lipid formulated in LNP (lipid/DSPC/cholesterol/PEG-lipid), pH at half-maximal intensity
Method: As described elsewhere, the pKa of formulated lipids is correlated with the effectiveness of LNPs for delivery of nucleic acids (see Jayaraman et al, Angewandte Chemie, International Edition (2012), 51(34), 8529-8533; Semple et al, Nature Biotechnology 28, 172-176 (2010)). In some embodiments, the preferred range of pKa is ˜5 to ˜7. The pKa of each lipid is determined in lipid nanoparticles using an assay based on fluorescence of 2-(p-toluidino)-6-napthalene sulfonic acid (TNS). Lipid nanoparticles comprising compound of structure (I)/DSPC/cholesterol/PEG-lipid (50/10/38.5/1.5 or 47.5:10:40.7:1.8 mol %) in PBS at a concentration of 0.4 mM total lipid are prepared using the in-line process as described in Example 1. TNS is prepared as a 100 μM stock solution in distilled water. Vesicles are diluted to 24 μM lipid in 2 mL of buffered solutions containing 10 mM HEPES, 10 mM MES, 10 mM ammonium acetate, and 130 mM NaCl, where the pH ranged from 2.5 to 11. An aliquot of the TNS solution is added to give a final concentration of 1 μM and following vortex mixing fluorescence intensity is measured at room temperature in a SLM Aminco Series 2 Luminescence Spectrophotometer using excitation and emission wavelengths of 321 nm and 445 nm. A sigmoidal best fit analysis is applied to the fluorescence data and the pKa is measured as the pH giving rise to half-maximal fluorescence intensity.

[2] = tested on: luciferase expression in the liver; experiment: Luciferase mRNA in vivo evaluation using lipid nanoparticle compositions; set-up: species or system mice; details: LNP with FLuc mRNA, tail vein injection; for Liver Luc, *Determined at 0.5 mg/kg: 0.5 mg mRNA/kg (starred cells of the 0.3 mg/kg column), liver 4 hours after administration; for Liver Luc @ 0.3 mg/kg: 0.3 mg mRNA/kg; for Liver Luc @ 0.3 mg/kg / Liver Luc @ 1.0 mg/kg: ng luciferase/g liver 4 hours after administration; for Liver Luc @ 1.0 mg/kg: 1.0 mg mRNA/kg
Method: A lipid of structure (I), DSPC, cholesterol and PEG-lipid are solubilized in ethanol at a molar ratio of 50:10:38.5:1.5 or 47.5:10:40.7:1.8. Lipid nanoparticles (LNP) are prepared at a total lipid to mRNA weight ratio of approximately 10:1 to 40:1. Briefly, the mRNA is diluted to 0.2 mg/mL in 10 to 50 mM citrate buffer, pH 4 or 10 to 25 mM acetate buffer, pH 4. Syringe pumps are used to mix the ethanolic lipid solution with the mRNA aqueous solution at a ratio of about 1:5 to 1:3 (vol/vol) with total flow rates above 15 mL/min. The ethanol is then removed and the external buffer replaced with PBS by dialysis. Finally, the lipid nanoparticles are filtered through a 0.2 µm pore sterile filter.
Studies are performed in 6-8 week old female C57BL/6 mice (Charles River) 8-10 week old CD-1 (Harlan) mice (Charles River) according to guidelines established by an institutional animal care committee (ACC) and the Canadian Council on Animal Care (CCAC). Varying doses of mRNA-lipid nanoparticle are systemically administered by tail vein injection and animals euthanized at a specific time point (e.g., 4 hours) post-administration. Liver and spleen are collected in pre-weighed tubes, weights determined, immediately snap frozen in liquid nitrogen and stored at −80° C. until processing for analysis.
For liver, approximately 50 mg is dissected for analyses in a 2 mL FastPrep tubes (MP Biomedicals, Solon OH). ¼″ ceramic sphere (MP Biomedicals) is added to each tube and 500 μL of Glo Lysis Buffer—GLB (Promega, Madison WI) equilibrated to room temperature is added to liver tissue. Liver tissues are homogenized with the FastPrep24 instrument (MP Biomedicals) at 2×6.0 m/s for 15 seconds. Homogenate is incubated at room temperature for 5 minutes prior to a 1:4 dilution in GLB and assessed using SteadyGlo Luciferase assay system (Promega). Specifically, 50 μL of diluted tissue homogenate is reacted with 50 μL of SteadyGlo substrate, shaken for 10 seconds followed by 5 minute incubation and then quantitated using a CentroXS^3 LB 960 luminometer (Berthold Technologies, Germany). The amount of protein assayed is determined by using the BCA protein assay kit (Pierce, Rockford, IL). Relative luminescence units (RLU) are then normalized to total μg protein assayed. To convert RLU to ng luciferase a standard curve is generated with QuantiLum Recombinant Luciferase (Promega).
The FLuc mRNA (L-6107) from Trilink Biotechnologies will express a luciferase protein, originally isolated from the firefly, Photinus pyralis. FLuc is commonly used in mammalian cell culture to measure both gene expression and cell viability. It emits bioluminescence in the presence of the substrate, luciferin. This capped and polyadenylated mRNA is fully substituted with 5-methylcytidine and pseudouridine.
Representative compounds of the disclosure shown in Table 2 were formulated using the following molar ratio: 50% cationic lipid/10% distearoylphosphatidylcholine (DSPC)/38.5% Cholesterol/1.5% PEG lipid 2-[2-(ω-methoxy(polyethyleneglycol2000)ethoxy]-N,N-ditetradecyl acetamide) or 47.5% cationic lipid/10% DSPC/40.7% Cholesterol/1.8% PEG lipid. Relative activity was determined by measuring luciferase expression in the liver 4 hours following administration via tail vein injection as described in Example 1 or by measuring the amount of human IgG in mouse serum as described in example 2. The activity was compared at a dose of 1.0 or 0.5 or 0.3 mg mRNA/kg and expressed as ng luciferase/g liver measured 4 hours after administration, as described in Example 1 or as μg IgG/mL serum measured 24 hours after administration, as described in Example 2. Compound numbers in Table 2 refer to the compound numbers of Table 1.

SMILES	pKa [1]	Liver Luc, *Determined at 0.5 mg/kg [2]	Liver Luc @ 0.3 mg/kg [2] [ng/g]	Liver Luc @ 1.0 mg/kg [2] [ng/g]
CCCCCCCCCCN(CCCCCCCCCC)C(=O)CCCCCCCN(C)CCCCCCCC(=O)N(CCCCCCCCCC)CCCCCCCCCC [Compound I-6, 8,8′-(methylazanediyl)bis(N,N-didecyloctanamide)]	6.19		20084 ± 5967	78367 ± 15904
CCCCCCCCCCN(CCCCCCCCCC)C(=O)CCCCCN(C)CCCCCC(=O)N(CCCCCCCCCC)CCCCCCCCCC [Compound I-10, 6,6′-(methylazanediyl)bis(N,N-didecylhexanamide)]	6.77		10779 ± 2473	22622 ± 8189
CCCCCCCCN(CCCCCCCC)C(=O)CCCCCCCCCN(CCCCCCO)CCCCCCCCCC(=O)N(CCCCCCCC)CCCCCCCC [Compound I-18, 10,10′-((6-hydroxyhexyl)azanediyl)bis(N,N-dioctyldecanamide)]	6.02		7115 ± 2087	14879 ± 1595
CCCCCCCCCCN(CCCCCCCCCC)C(=O)CCCCCCCCCN(CCO)CCCCCCCCCC(=O)N(CCCCCCCCCC)CCCCCCCCCC [Compound I-20, 10,10′-((2-hydroxyethyl)azanediyl)bis(N,N-didecyldecanamide)]	6.27	879 ± 365* ng/g		
CCCCC(CC)CN(CC(CC)CCCC)C(=O)CCCCCN(CCCCO)CCCCCC(=O)N(CC(CC)CCCC)CC(CC)CCCC (stereo not drawn) [Compound I-27, 6,6′-((4-hydroxybutyl)azanediyl)bis(N,N-bis(2-ethylhexyl)hexanamide)]	6.56	21 ± 6* ng/g		
CCCCCCCCCCN(CCCCCCCCCC)C(=O)CCCCCCCCCN(CCCCCCCCCC(=O)N(CCCCCCCCCC)CCCCCCCCCC)CCN(C)C [Compound I-28, 10,10′-((2-(dimethylamino)ethyl)azanediyl)bis(N,N-didecyldecanamide)]	6.22		6602 ± 2609	13298 ± 4040
CCCCCCCCCCNC(=O)CCCCN(CCCCCCCC(=O)N(CCCCCCCCCC)CCCCCCCCCC)CCCCCCCC(=O)N(CCCCCCCCCC)CCCCCCCCCC [Compound I-30, 8,8′-((5-(decylamino)-5-oxopentyl)azanediyl)bis(N,N-didecyloctanamide)]	6.16		6567 ± 1534	19625 ± 2173
CCCCCCCCCCN(CCCCCCCCCC)C(=O)CCCCCCCN(C)CCCCCCCC(=O)N(CCCCCCCC)CCCCCCCC [Compound I-55, N,N-didecyl-8-((8-(dioctylamino)-8-oxooctyl)(methyl)amino)octanamide]	6.22		8244 ± 1599	30106 ± 13756
CCCCCCCCCN(CCCCCCCCC)C(=O)CCCCCCCN(C)CCCCCCCC(=O)N(CCCCCCCCC)CCCCCCCCC [Compound I-58, 8,8′-(methylazanediyl)bis(N,N-dinonyloctanamide)]	6.19		18664 ± 5438	73794 ± 14083

Now from value to compound, other results behind:

pKa [1]	SMILES	Liver Luc, *Determined at 0.5 mg/kg [2]	Liver Luc @ 0.3 mg/kg [2] [ng/g]	Liver Luc @ 1.0 mg/kg [2] [ng/g]
6.87	CCCCCCCCN(CCCCCCCC)C(=O)CCCCCN(CCO)CCCCCC(=O)N(CCCCCCCC)CCCCCCCC [Compound I-3, 6,6′-((2-hydroxyethyl)azanediyl)bis(N,N-dioctylhexanamide)]	227 ± 138* ng/g		
6.43	CCCCCCCCN(CCCCCCCC)C(=O)CCCCCCCN(C)CCCCCCCC(=O)N(CCCCCCCC)CCCCCCCC [Compound I-7, 8,8′-(methylazanediyl)bis(N,N-dioctyloctanamide)]		16595 ± 836	81021 ± 24105
6.02	CCCCCCCCN(CCCCCCCC)C(=O)CCCCCCCCCN(C)CCCCCCCCCC(=O)N(CCCCCCCC)CCCCCCCC [Compound I-8, 10,10′-(methylazanediyl)bis(N,N-dioctyldecanamide)]		8743 ± 2153	37220 ± 15377
6.83	CCCCCCCCCCCCCCCC(=O)N(CCCCCC)CCCCCCN(C)CCCCCCN(CCCCCC)C(=O)CCCCCCCCCCCCCCC [Compound I-9, N,N′-((methylazanediyl)bis(hexane-6,1-diyl))bis(N-hexylpalmitamide)]		4337 ± 1394	21023 ± 12693
6.59	CCCCC/C=C\C/C=C\CCCCCCCC(=O)N(CCCCCC)CCCCCCN(C)CCCCCCN(CCCCCC)C(=O)CCCCCCC/C=C\C/C=C\CCCCC [Compound I-14, (9Z,9′Z,12Z,12′Z)—N,N′-((methylazanediyl)bis(hexane-6,1-diyl))bis(N-hexyloctadeca-9,12-dienamide)]		2738 ± 728	5735 ± 2364
6.28	CCCCCCCCCCN(CCCCCCCCCC)C(=O)CCCCCCCCCN(CCCCO)CCCCCCCCCC(=O)N(CCCCCCCCCC)CCCCCCCCCC [Compound I-25, 10,10′-((4-hydroxybutyl)azanediyl)bis(N,N-didecyldecanamide)]		20276 ± 3044	64656 ± 24090
5.91	CCCCCCCCCCN(CCCCCCCCCC)C(=O)CCCCCCCN(CCCCCCCC(=O)N(CCCCCCCCCC)CCCCCCCCCC)CCOCCOC [Compound I-46, 8,8′-((2-(2-methoxyethoxy)ethyl)azanediyl)bis(N,N-didecyloctanamide)]		10201 ± 2440	52937 ± 8101
6.24	CCCCCCCCCCN(CCCCCCCCCC)C(=O)CCCCCCCCCN(CCCCCCCCCC(=O)N(CCCCCCCCCC)CCCCCCCCCC)CCCn1ccnc1 [Compound I-57, 10,10′-((3-(1H-imidazol-1-yl)propyl)azanediyl)bis(N,N-didecyldecanamide)]		476 ± 134	1456 ± 518
6.27	CCCCCCCCCCN(CCCCCCCCCC)C(=O)CCCCCCCN(C)CCCCCCCC(=O)N(CCCCCCCCC)CCCCCCCCC [Compound I-59]		10786 ± 1924	43489 ± 5698
